Experimental data reported in ChEMBL document CHEMBL5291721, “A preclinical secondary pharmacology resource illuminates target-adverse drug reaction associations of marketed drugs” (Nat Commun, 2023).

How the values were obtained:
[1] = target: T1, 5-hydroxytryptamine receptor 1A (Homo sapiens, UniProt P08908); type: functional, cell-based
T1 sequence (P08908 whole entry): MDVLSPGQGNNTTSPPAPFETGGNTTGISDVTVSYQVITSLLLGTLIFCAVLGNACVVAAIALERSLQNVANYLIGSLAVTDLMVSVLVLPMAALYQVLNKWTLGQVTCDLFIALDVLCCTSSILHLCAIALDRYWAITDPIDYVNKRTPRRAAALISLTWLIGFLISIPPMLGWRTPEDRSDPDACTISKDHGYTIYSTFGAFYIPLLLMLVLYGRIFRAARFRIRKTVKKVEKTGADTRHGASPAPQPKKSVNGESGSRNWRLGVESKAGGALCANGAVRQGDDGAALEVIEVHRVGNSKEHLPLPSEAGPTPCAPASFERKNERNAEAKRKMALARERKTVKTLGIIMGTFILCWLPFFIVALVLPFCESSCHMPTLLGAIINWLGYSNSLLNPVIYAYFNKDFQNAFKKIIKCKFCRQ

[2] = target: T2, Amine oxidase [flavin-containing] A (Homo sapiens, UniProt P21397); type: functional
T2 sequence (P21397 whole entry): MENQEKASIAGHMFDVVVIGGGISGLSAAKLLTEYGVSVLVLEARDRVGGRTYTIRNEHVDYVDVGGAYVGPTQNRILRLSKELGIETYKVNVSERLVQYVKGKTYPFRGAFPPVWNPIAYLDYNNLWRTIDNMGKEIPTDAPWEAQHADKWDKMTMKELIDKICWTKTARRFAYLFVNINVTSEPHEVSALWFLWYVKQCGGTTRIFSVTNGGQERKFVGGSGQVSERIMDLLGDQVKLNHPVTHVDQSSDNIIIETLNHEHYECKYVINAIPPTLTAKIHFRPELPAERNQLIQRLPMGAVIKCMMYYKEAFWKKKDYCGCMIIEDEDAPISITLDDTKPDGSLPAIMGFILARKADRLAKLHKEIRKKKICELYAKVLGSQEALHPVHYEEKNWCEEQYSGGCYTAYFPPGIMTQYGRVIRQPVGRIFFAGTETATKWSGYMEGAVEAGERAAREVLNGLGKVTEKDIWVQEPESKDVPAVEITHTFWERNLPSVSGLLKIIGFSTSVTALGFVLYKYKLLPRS

Adenosine receptor A2a = Adenosine receptor A2a (Homo sapiens, UniProt P29274)
Adenosine receptor A2a, sequence (P29274 whole entry): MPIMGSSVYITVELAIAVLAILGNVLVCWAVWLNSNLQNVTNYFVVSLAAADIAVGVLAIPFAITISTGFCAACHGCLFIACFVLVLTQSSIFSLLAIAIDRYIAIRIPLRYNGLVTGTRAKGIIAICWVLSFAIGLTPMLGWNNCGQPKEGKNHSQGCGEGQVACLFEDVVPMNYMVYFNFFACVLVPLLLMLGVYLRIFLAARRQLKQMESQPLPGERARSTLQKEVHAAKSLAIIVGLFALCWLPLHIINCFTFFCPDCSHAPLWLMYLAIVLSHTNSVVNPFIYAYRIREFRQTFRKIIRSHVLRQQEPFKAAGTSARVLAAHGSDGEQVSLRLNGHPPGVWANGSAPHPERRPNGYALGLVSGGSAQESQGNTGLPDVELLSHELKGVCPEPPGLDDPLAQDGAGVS

Adenosine receptor A1 = target: T3, Adenosine receptor A1 (Homo sapiens, UniProt P30542)
T3 sequence (P30542 whole entry): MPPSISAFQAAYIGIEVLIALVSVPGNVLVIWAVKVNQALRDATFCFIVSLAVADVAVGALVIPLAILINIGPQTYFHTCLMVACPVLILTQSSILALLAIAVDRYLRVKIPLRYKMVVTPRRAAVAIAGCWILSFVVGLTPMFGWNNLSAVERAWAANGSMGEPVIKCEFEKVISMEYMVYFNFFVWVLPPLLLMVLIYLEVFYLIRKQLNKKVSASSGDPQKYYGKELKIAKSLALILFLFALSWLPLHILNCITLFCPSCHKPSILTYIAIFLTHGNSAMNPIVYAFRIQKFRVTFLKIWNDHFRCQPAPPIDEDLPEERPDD

[3] = target: T4, Prostaglandin G/H synthase 1 (Rattus norvegicus, UniProt Q63921); type: functional
T4 sequence (Q63921 whole entry): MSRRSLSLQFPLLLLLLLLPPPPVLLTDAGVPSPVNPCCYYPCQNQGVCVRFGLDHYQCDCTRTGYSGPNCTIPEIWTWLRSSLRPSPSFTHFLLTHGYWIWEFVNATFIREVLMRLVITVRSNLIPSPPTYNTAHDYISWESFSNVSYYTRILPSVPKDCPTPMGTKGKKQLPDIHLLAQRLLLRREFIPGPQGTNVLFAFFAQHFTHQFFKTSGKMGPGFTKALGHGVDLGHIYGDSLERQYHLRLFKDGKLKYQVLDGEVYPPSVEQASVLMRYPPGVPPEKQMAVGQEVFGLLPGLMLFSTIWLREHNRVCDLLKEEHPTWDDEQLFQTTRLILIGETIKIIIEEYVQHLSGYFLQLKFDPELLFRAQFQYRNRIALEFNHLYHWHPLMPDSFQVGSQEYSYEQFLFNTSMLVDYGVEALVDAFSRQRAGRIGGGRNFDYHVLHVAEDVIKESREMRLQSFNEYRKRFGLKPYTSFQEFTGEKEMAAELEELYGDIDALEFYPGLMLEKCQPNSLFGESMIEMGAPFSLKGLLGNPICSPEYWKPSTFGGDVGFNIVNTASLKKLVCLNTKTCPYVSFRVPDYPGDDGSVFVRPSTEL

[4] = target: T5, Type-1 angiotensin II receptor (Homo sapiens, UniProt P30556)
T5 sequence (P30556 whole entry): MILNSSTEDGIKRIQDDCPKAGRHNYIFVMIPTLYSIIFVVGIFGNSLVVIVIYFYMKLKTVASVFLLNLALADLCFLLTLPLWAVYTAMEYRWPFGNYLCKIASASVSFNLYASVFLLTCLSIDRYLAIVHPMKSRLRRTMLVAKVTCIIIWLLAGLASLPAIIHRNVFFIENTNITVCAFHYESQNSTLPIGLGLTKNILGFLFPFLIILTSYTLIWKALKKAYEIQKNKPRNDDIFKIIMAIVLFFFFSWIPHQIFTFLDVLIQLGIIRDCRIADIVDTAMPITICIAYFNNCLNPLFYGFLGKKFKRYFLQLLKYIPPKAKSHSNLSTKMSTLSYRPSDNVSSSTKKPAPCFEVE

[5] = target: T6, Alpha-2A adrenergic receptor (Homo sapiens, UniProt P08913); type: functional, cell-based
T6 sequence (P08913 whole entry): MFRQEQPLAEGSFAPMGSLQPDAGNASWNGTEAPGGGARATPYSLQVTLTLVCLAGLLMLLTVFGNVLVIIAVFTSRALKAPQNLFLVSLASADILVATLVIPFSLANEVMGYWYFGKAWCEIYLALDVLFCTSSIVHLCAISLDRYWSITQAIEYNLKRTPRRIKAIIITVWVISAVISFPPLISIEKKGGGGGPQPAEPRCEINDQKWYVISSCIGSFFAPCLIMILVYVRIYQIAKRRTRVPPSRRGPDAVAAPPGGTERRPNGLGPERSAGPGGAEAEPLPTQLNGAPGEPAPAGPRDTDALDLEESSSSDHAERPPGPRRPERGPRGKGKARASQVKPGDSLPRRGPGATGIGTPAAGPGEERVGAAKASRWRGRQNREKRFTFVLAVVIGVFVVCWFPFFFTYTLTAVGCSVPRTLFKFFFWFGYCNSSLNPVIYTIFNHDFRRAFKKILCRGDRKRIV

[6] = target: T6, Alpha-2A adrenergic receptor; type: functional, cell-based; remark: listed apart in the source
Note: assay procedure not described here.

SMILES	AC50 [1] [µM]	AC50 [2] [µM]	AC50 (Adenosine receptor A2a) [µM]	AC50 (Adenosine receptor A1) [µM]	AC50 [3] [µM]	AC50 [4] [µM]	AC50 [5] [µM]	AC50 [6] [µM]
Cc1cn([C@H]2C[C@H](N=[N+]=[N-])[C@@H](CO)O2)c(=O)[nH]c1=O [ZIDOVUDINE]	> 10	> 10	> 30	> 30	> 30	> 30	> 10	> 10
Cc1nc([N+](=O)[O-])cn1-c1ccc([N+](=O)[O-])cc1 [NITREFAZOLE]	> 30	> 30	> 30	> 30	> 30	> 30	> 30	> 30
O=C1Nc2ccc(Cl)cc2[C@@](C#CC2CC2)(C(F)(F)F)O1 [EFAVIRENZ]	> 10	> 30	> 30	> 30	> 30	13	> 10	> 10
Nc1ccn([C@H]2CC[C@@H](CO)O2)c(=O)n1 [ZALCITABINE]	> 10	> 10	> 10	> 10	> 10	> 10	> 10	> 10
c1ccc([C@H]2CN3CCSC3=N2)cc1 [LEVAMISOLE]	> 30	> 30	> 30	> 30	> 30	> 30	> 30	> 30
O=C(O[C@H]1C[C@H]2CC[C@@H](C1)[N+]21CCCC1)C(O)(c1ccccc1)c1ccccc1 [TROSPIUM]	> 30	> 30	> 30	> 30	> 30	> 30	> 30	> 30
CC[C@H]1[C@@H](O)[C@@H]2[C@H](CC[C@]3(C)[C@@H]([C@H](C)CCC(=O)O)CC[C@@H]23)[C@@]2(C)CC[C@@H](O)C[C@@H]12 [OBETICHOLIC ACID]	> 30	> 30	> 30	> 30	27	> 30	11	> 30
CC(=O)NCCCS(=O)(=O)O [ACAMPROSATE]	> 30	> 30	> 30	> 30	> 30	> 30	> 30	> 30
CCCSc1ccc2nc(NC(=O)OC)[nH]c2c1 [ALBENDAZOLE]	> 10	> 10	> 30	> 10	> 30	> 10	> 10	> 10
c1cnc(N2CCN(Cc3ccc4c(c3)OCO4)CC2)nc1 [PIRIBEDIL]	> 30	> 30	> 30	> 30	> 30	> 30	0.059	> 30
CC1=C(C(=O)O)N2C(=O)[C@@H](NC(=O)[C@H](N)c3ccccc3)[C@H]2SC1 [CEPHALEXIN ANHYDROUS]	> 30	> 10	> 30	> 30	> 30	> 30	> 30	> 30
C=CCc1ccccc1OCC(O)CNC(C)C (stereo not given) [ALPRENOLOL]	> 30	> 30	> 30	> 30	> 30	> 30	> 30	> 30
Clc1ccc(C(c2ccccc2Cl)C(Cl)Cl)cc1 (stereo not given) [MITOTANE]	> 10	> 10	> 10	> 10	> 10	> 10	> 10	> 10
COCCCN1CCC(NC(=O)c2cc(Cl)c(N)c3c2OCC3)CC1 [PRUCALOPRIDE]	> 30	> 30	> 30	> 30	> 30	> 30	> 30	> 30
O=C(OCC(O)CO)c1ccccc1Nc1ccnc2cc(Cl)ccc12 (stereo not given) [GLAFENINE]	> 30	> 30	23	> 30	> 30	> 30	> 30	> 30
N[C@@H]1[C@H]2CN(c3nc4c(cc3F)c(=O)c(C(=O)O)cn4-c3ccc(F)cc3F)C[C@@H]12 [TROVAFLOXACIN]	> 30	> 30	> 30	> 30	> 30	> 30	> 30	> 30
Cc1cn([C@H]2C=C[C@@H](CO)O2)c(=O)[nH]c1=O [STAVUDINE]	> 10	> 30	> 30	> 30	> 30	> 30	> 10	> 10
NCC(CC(=O)O)c1ccc(Cl)cc1 (stereo not given) [BACLOFEN]	> 30	> 30	> 30	> 30	> 30	> 30	> 30	> 30
CN(C)CCC=C1c2ccccc2C(C)(C)c2ccccc21	26	> 30	> 30	> 30	> 30	> 30	6.7	> 30
CC1(C)NC(=O)N(c2ccc([N+](=O)[O-])c(C(F)(F)F)c2)C1=O [NILUTAMIDE]	> 30	> 30	> 30	> 30	> 30	> 30	> 30	> 30
